ChEMBL document CHEMBL1158791, “Grayanane diterpenoids from the flowers of Rhododendron molle with cytotoxic activity against a Spodoptera frugiperda cell line” (J Nat Prod, 2005)
In brackets after ≈: the same amount, converted by molar mass.

Experiment: Cytotoxicity against Spodoptera frugiperda Sf9 cells after 48 hrs
Type: functional, cell-based
Conditions: Sf9, 48 h
In the case of `C/C=C(\C)C(=O)O[C@H]1C[C@@H](OC(C)=O)[C@@]2(C(=O)OC)CO[C@H]3[C@@H](O)[C@@](C)([C@]45O[C@@]4(C)[C@@H]4C[C@H]5O[C@@H]5OC=C[C@@]54O)[C@H]4[C@]1(CO[C@]4(O)C(=O)OC)[C@@H]32` [AZADIRACHTIN A], the IC50 is reported as 20.3 µg/mL (≈ 28.2 µM).
For `CC1(C)[C@H]2O[C@H]2[C@H]2[C@](C)(O)[C@@H]3CC[C@@H]4[C@H](O)[C@@]3(C[C@@H](O)[C@@]21O)C[C@@]4(C)O` [RHODOJAPONIN], the IC50 was 12.6 µg/mL (≈ 34.2 µM).
In the case of `C=C1[C@@H]2[C@H](OC)[C@H](O)C(C)(C)[C@@]2(O)[C@H](O)C[C@]23C[C@@](C)(O)[C@H](CC[C@@H]12)[C@H]3O` [RHODOMOLIN A], the IC50 is reported as 37.8 µg/mL (≈ 98.8 µM).
Compound `C=C1[C@@H]2[C@H](O)[C@H](O)C(C)(C)[C@@]2(O)[C@H](O)C[C@]23C[C@@](C)(O)[C@H](CC[C@@H]12)[C@H]3OC(C)=O` [RHODOMOLIN B] has an IC50 of 25.6 µg/mL (≈ 62.4 µM).
